IC50 data for 16 sequences are collected here from US9340577B2, “HLA binding motifs and peptides and their uses” (priority 1992, dated 2016).

Holding throughout (assay): biochemical
Test [1] concerns the target DRB1*0405 (Homo sapiens, UniProt P01903+P01911, A100R/A169T/D86S/F76Y/I96L/K127E/L162R/M171V/N62H/P40V/Q125Y/R42H/S133A/S149N/S66Y/V115G/V209L/W38E). The test is classed as binding.
For test [2], the target named is DRB1*0802 (Homo sapiens, UniProt P01903+P01911, A100R/A103L/A169T/F76Y/H45Y/I96F/K41T/L162R/M171V/P40S/Q125H/Q178H/Q39Y/Q99D/R218S/R42G/S66Y/V115G/W38E). In kind it is binding.
For test [3], the target named is DRB1*1101 (Homo sapiens, UniProt P01903+P01911, A100R/A169T/A87E/I96F/K41T/L162R/M171V/P40S/Q125H/Q178H/Q39Y/Q99D/R42S/S66Y/T262R/V115G/W38E).
The target in test [4] is DRB1*0901 (Homo sapiens, UniProt P01903+P01911, A100R/A103E/D57H/D86V/F55Y/F60I/F76Y/I96F/K127E/L162R/M171V/P40D/Q125H/Q99R/R33Q/R42F/S133A/S66N/T210M/V115G/W38K/Y107V/Y59G/Y89S). The test is classed as binding.
Test [5] addresses DRB5*0101 (Homo sapiens, UniProt P01903+Q30154).
Test [6] concerns the target DR7 (DRB1*0701) (Homo sapiens, UniProt P01903+P01911, A100R/A102G/A103Q/D57E/D86V/E43K/F76Y/K127E/L162R/M171V/P40G/Q125H/Q99D/R33Q/R42Y/R54Q/S133A/S66F/T210M/V115G/Y107V/Y59L/Y89S). The test is classed as binding.
In test [7] the target is DR1 (DRB1*0101) (Homo sapiens, UniProt P01903+P01911, A100R/D57E/F55L/F60I/F76Y/I96L/L162R/M171V/P40L/Q125E/R42F/V115G/Y59C). The test is classed as binding.
The target in test [8] is DR4w4 (DRB1*0401) (Homo sapiens, UniProt P01903+P01911, A100K/A169T/F76Y/I96L/K127E/L162R/M171V/N62H/P40V/Q125Y/R42H/S133A/S149N/S66Y/V115G/V209L/W38E). In kind it is binding.
Test [9] concerns the target DRB1*1302 (Homo sapiens, UniProt P01903+P01911, A100E/A169T/K41T/L162R/M171V/P40S/Q125H/Q178H/Q39Y/Q99D/R42S/S66N/T262R/V115G/W38E/Y61H). In kind it is binding.
In test [10] the target is DRB4*0101 (Homo sapiens, UniProt P01903+P13762, G164S). The test is classed as binding.
The target in test [11] is DRB1*1501 (Homo sapiens, UniProt P01903+P01911). In kind it is binding.

Read-outs that look alike come from different tables or passages of the source. No end group written: not given here. A value given as a limit tells only on which side of the number the result lay.

Sequence of DRB1*1101 (P01903 26-254 limits assumed, other chains not shown): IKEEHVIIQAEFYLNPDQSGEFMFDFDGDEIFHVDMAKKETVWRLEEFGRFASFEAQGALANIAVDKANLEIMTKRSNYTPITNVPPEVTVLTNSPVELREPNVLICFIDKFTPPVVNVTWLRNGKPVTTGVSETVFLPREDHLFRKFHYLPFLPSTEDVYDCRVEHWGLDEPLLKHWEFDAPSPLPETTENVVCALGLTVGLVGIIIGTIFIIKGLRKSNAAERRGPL
Sequence of DRB1*1302 (P01903 26-254 limits assumed, other chains not shown): as above

On to NHQVVPALSVSKAKA [Peptide 89.0168], for which the IC50 in [1], in test [2], in test [3] (Binding affinity DRB1 *1101), in [4], in test [5] (Binding affinity DRB5 *0101) and in [6] was over 20 µM throughout. Further, the IC50 is over 20 µM in test [7]; 0.959 µM in test [8]; 0.9 µM in [9]; over 20 µM in [10]; 7.34 µM in test [11].

For NSIFDFGEMVQWAYD [Peptide 89.0106], the half-inhibitory concentration (IC50) in test [1] was over 20 µM; in [2], over 20 µM; in [3] (Binding affinity DRB1 *1101), over 20 µM; in test [4], over 20 µM; in test [5] (Binding affinity DRB5 *0101), over 20 µM; in test [6], 5.98 µM. For the same sequence, the IC50 turned out to be 4.85 µM in test [7]; 5.25 µM in [8]; 0.532 µM in test [9]; 3.95 µM in test [10]; 9.98 µM in [11].

EVHVGGQVIVCPTSI [Peptide 89.0184]: the IC50 in [1] is 0.557 µM; in test [2], over 20 µM; in test [3] (Binding affinity DRB1 *1101), over 20 µM; in test [4], over 20 µM; in test [5] (Binding affinity DRB5 *0101), over 20 µM; in [6], over 20 µM. Also, the IC50 in test [7], in test [8], in test [9], in test [10] and in test [11] was over 20 µM each time.

ALSVSKAKALQAIEL [Peptide 89.0170]: the IC50 was 8.43 µM in test [1]; over 20 µM in test [2]; over 20 µM in test [3] (Binding affinity DRB1 *1101); 4.33 µM in test [4]; over 20 µM in test [5] (Binding affinity DRB5 *0101); 3.21 µM in test [6]. Further, the IC50 in test [7] is 0.084 µM; in test [8] it was 0.281 µM; in [9] it was 1.63 µM; in test [10] it was over 20 µM; in test [11], over 20 µM.

Consider IHFLKGCIISYVNSK [Peptide 89.0147], for which the IC50 in test [1] was over 20 µM; in test [2], over 20 µM; in test [3] (Binding affinity DRB1 *1101), over 20 µM; in test [4] it was over 20 µM; in test [5] (Binding affinity DRB5 *0101) it was over 20 µM; in test [6], 6.49 µM. Besides, the IC50 in test [7] was over 20 µM; in test [8] it was 3.84 µM; in test [9], over 20 µM; in test [10], 1.36 µM; in [11], over 20 µM.

As for LKRFLQGIPKKNCIL [Peptide 89.0016], the IC50 was over 20 µM in test [1]; 3.29 µM in test [2]; 2.54 µM in test [3] (Binding affinity DRB1 *1101); 7.67 µM in test [4]; 0.0055 µM in [5] (Binding affinity DRB5 *0101); over 20 µM in test [6]. Moreover, the half-maximal inhibitory concentration (IC50) was 0.069 µM in [7]; 0.944 µM in [8]; over 20 µM in [9]; 1.7 µM in [10]; 3.62 µM in [11].

In the case of DIAYKYAQLADVNSN [Peptide 89.0108], the IC50 was 2.2 µM in test [1]; over 20 µM in test [2]; 12.6 µM in [3] (Binding affinity DRB1 *1101); 10.6 µM in test [4]; 0.15 µM in test [5] (Binding affinity DRB5 *0101); 1.02 µM in test [6]. Moreover, the IC50 is 4.73 µM in test [7]; 0.088 µM in test [8]; over 20 µM in test [9]; 0.295 µM in test [10]; over 20 µM in [11].

For LKTVKIPNTVQVIQG [Peptide 90.0017], the IC50 in test [1] was 19.2 µM; in test [2], over 20 µM; in test [3] (Binding affinity DRB1 *1101), over 20 µM; in [4], over 20 µM; in test [5] (Binding affinity DRB5 *0101) it was over 20 µM; in test [6], 0.777 µM. The half-inhibitory concentration (IC50) in test [7] is 8.18 µM; in [8], over 20 µM; in test [9] it was 0.033 µM; in test [10], over 20 µM; in test [11], over 20 µM.

Take DSQIAFQYAQLADVD [Peptide 89.0130]: the concentration for half-maximal inhibition (IC50) in [1] was 9.99 µM; in test [2] it was over 20 µM; in test [3], over 20 µM; in test [4], over 20 µM; in test [5], 17.1 µM; in test [6], over 20 µM. The 50% inhibitory concentration (IC50) is over 20 µM in test [7]; 3 µM in [8]; over 20 µM in test [9]; 0.014 µM in test [10]; over 20 µM in [11].

For HCTLYTAVSSTWHWT [Peptide 89.0157], the concentration for half-maximal inhibition (IC50) in [1], in test [2], in test [3] (Binding affinity DRB1 *1101), in [4], in test [5] (Binding affinity DRB5 *0101) and in test [6] was over 20 µM in each case. In addition, the half-maximal inhibitory concentration (IC50) in test [7] was 2.89 µM; in test [8], 19 µM; in test [9], 0.867 µM; in test [10], over 20 µM; in test [11], over 20 µM.

As to DRGIIILLLIRFRCS [Peptide 89.0062], the IC50 in test [1] was 7.18 µM; in test [2], 0.085 µM; in test [3] (Binding affinity DRB1 *1101), 8.28 µM; in [4], over 20 µM; in test [5] (Binding affinity DRB5 *0101), over 20 µM; in test [6] it was over 20 µM. Moreover, the half-inhibitory concentration (IC50) in [7] was over 20 µM; in [8], over 20 µM; in [9], over 20 µM; in test [10], 7.56 µM; in [11] it was 14.4 µM.

RNLVDGNPISLDRKH [Peptide 89.0137]: the IC50 in test [1] is over 20 µM; in test [2], over 20 µM; in test [3], over 20 µM; in test [4] it was over 20 µM; in test [5], over 20 µM; in [6], 7.38 µM. The IC50 in test [7] was 11.2 µM; in test [8], 1.04 µM; in test [9], over 20 µM; in test [10], 0.992 µM; in test [11], over 20 µM.

For EVHVGGQVIVCPASV [Peptide 90.0015], the half-inhibitory concentration (IC50) in test [1] is 6.78 µM; in test [2] it was over 20 µM; in [3] (Binding affinity DRB1 *1101) it was over 20 µM; in test [4], 2.6 µM; in test [5] (Binding affinity DRB5 *0101), over 20 µM; in test [6], 0.187 µM. In addition, the IC50 in test [7] was 4.09 µM; in test [8], 2.1 µM; in test [9], 0.152 µM; in test [10] it was 0.389 µM; in test [11], over 20 µM.

As to LVQIKCPPLLITTNI [Peptide 89.0138], the IC50 in [1], in test [2], in test [3], in test [4], in test [5] and in test [6] was over 20 µM in each case. The IC50 was over 20 µM in test [7]; over 20 µM in [8]; over 20 µM in test [9]; 0.018 µM in test [10]; over 20 µM in test [11].

Consider DSEIAYKYAQLADTN [Peptide 89.0012], for which the IC50 in test [1] was 11 µM; in test [2], 1.12 µM; in [3] (Binding affinity DRB1 *1101), 3.54 µM; in test [4], 1.93 µM; in test [5] (Binding affinity DRB5 *0101), 19.6 µM; in test [6], over 20 µM. The IC50 was 0.734 µM in [7]; 1.95 µM in [8]; over 20 µM in test [9]; 0.275 µM in test [10]; 3.44 µM in test [11].

As to GKSYFGMSLISFLQG [Peptide 89.0056], the IC50 in test [1] was 1.23 µM; in [2] it was 6.02 µM; in test [3] (Binding affinity DRB1 *1101) it was 0.9 µM; in test [4], 0.512 µM; in test [5] (Binding affinity DRB5 *0101), over 20 µM; in test [6] it was 0.284 µM. Further, the half-inhibitory concentration (IC50) in test [7] was found to be 0.17 µM; in test [8] it was 1.09 µM; in [9], 1.34 µM; in [10], 1.96 µM; in test [11], 4.79 µM.
